As usually defined, the IC50 is the midpoint of a concentration-inhibition curve.

IC50 data for four compounds are collected here from patent US20070232607A1, “Quinazoline Derivatives as Erbb Receptor Tyrosine kinases” (priority 2004, published 2007).

The target in one test is T1, EGFR tyrosine kinase (Homo sapiens, UniProt P00533).
T1 construct: Recombinant intracellular fragments of EGFR, erbB2 and erbB4; made in house; host or cells: baculovirus/Sf21 insect cells (cleared lysate used)
Briefly: Protein tyrosine kinase phosphorylation assay, Test (a), EGFR. Format: biochemical. The settings on record: recombinant intracellular fragment, ATP at Km concentration; read-out: IC50 (μM) Test (a): Inhibition of EGFR tyrosine kinase protein phosphorylation. On the procedure: (§1) This test measures the ability of a test compound to inhibit the phosphorylation of a tyrosine containing polypeptide substrate by an erb receptor tyrosine kinase enzyme.
(§2) Recombinant intracellular fragments of EGFR, erbB2 and erbB4 (accession numbers X00588, X03363 and L07868 respectively) were cloned and expressed in the baculovirus/Sf21 system. Lysates were prepared from these cells by treatment with ice-cold lysis buffer (20 mM N-2-hydroxyethylpiperizine-N′-2-ethanesulfonic acid (HEPES) pH7.5, 150 mM NaCl, 10% glycerol, 1% Triton X-100, 1.5 mM MgCl2, 1 mM ethylene glycol-bis(β-aminoethyl ether) N′,N′,N′,N′-tetraacetic acid (EGTA), plus protease inhibitors and then cleared by centrifugation.
(§3) Constitutive kinase activity of these recombinant proteins was determined by their ability to phosphorylate a synthetic peptide (made up of a random co-polymer of Glutamic Acid, Alanine and Tyrosine in the ratio of 6:3:1). Specifically, Maxisorb™ 96-well immunoplates were coated with synthetic peptide (0.2 μg of peptide in a 100 μl phosphate buffered saline (PBS) solution and incubated at 4° C. overnight). Plates were washed in 50 mM HEPES pH 7.4 at room temperature to remove any excess unbound synthetic peptide. EGFR or erbB2 activities were assessed by incubation in peptide coated plates for 20 minutes at room temperature in 50 mM HEPES pH 7.4 at room temperature, adenosine trisphosphate (ATP) at Km concentration for the respective enzyme, 10 mM MnCl2, 0.05 mM Na3VO4, 0.1 mM DL-dithiothreitol (DTT), 0.05% Triton X-100 with test compound in DMSO (final concentration of 2.5%). Reactions were terminated by the removal of the liquid components of the assay followed by washing of the plates with PBS-T (phosphate buffered saline with 0.05% Tween 20).
(§4) The immobilised phospho-peptide product of the reaction was detected by immunological methods. Firstly, plates were incubated for 90 minutes at room temperature with anti-phosphotyrosine primary antibodies that were raised in the mouse (4G10 from Upstate Biotechnology). Following extensive washing, plates were treated with Horseradish Peroxidase (HRP) conjugated sheep anti-mouse secondary antibody (NXA931 from Amersham) for 60 minutes at room temperature. After further washing, HRP activity in each well of the plate was measured colorimetrically using 22′-Azino-di-[3-ethylbenzthiazoline sulfonate (6)] diammonium salt crystals (ABTS™ from Roche) as a substrate.
(§5) Quantification of colour development and thus enzyme activity was achieved by the measurement of absorbance at 405 nm on a Molecular Devices ThermoMax microplate reader. Kinase inhibition for a given compound was expressed as an IC50 value. […] The range of phosphorylation was calculated from the positive (vehicle plus ATP) and negative (vehicle minus ATP) control values.

In test [1] the target is T2, erbB2 in a MCF7 derived cell line (Clone 24 cells) (Homo sapiens, UniProt P04626).
T2 construct: a cell line that overexpresses full length wild type erbB2 protein; expressed in transfected cells; host or cells: MCF7 (breast carcinoma) cells stably transfected, 'Clone 24'
T2 sequence (P04626 23-1255): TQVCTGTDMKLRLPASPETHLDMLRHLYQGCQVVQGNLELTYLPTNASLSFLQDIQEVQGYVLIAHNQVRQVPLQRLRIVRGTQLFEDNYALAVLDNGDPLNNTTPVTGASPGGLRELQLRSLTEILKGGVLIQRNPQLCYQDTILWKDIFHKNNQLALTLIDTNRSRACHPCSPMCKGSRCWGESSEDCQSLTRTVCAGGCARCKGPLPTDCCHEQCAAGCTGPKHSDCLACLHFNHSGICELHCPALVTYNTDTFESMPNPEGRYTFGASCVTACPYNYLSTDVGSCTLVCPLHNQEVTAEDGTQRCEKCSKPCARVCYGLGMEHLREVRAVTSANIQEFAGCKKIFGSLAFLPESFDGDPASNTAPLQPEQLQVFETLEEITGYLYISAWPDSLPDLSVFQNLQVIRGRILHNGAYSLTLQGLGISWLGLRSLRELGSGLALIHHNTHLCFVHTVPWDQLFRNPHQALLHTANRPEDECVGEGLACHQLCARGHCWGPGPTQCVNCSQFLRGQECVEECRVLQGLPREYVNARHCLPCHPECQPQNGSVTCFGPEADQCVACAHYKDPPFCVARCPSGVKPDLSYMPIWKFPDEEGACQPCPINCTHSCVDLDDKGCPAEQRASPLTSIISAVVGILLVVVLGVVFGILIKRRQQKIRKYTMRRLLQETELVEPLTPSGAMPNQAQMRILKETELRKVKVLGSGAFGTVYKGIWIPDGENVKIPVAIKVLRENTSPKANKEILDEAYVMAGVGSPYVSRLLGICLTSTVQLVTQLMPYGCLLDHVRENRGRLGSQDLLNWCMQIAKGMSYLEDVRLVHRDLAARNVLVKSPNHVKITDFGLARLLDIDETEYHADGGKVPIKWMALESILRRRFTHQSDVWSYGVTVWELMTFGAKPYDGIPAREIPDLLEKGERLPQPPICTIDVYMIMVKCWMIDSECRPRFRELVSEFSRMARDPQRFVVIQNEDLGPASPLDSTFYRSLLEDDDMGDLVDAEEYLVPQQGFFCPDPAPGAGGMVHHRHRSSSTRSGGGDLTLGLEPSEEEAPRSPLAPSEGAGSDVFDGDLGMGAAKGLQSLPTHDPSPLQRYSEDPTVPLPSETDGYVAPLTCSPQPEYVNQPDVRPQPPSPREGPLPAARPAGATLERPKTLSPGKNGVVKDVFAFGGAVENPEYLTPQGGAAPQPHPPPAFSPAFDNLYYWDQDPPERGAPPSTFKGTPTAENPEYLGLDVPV
Put plainly: Clone 24 phospho-erbB2 cell assay, Test (d). Format: cell-based. The settings on record: phosphorylation of erbB2 in a MCF7 derived cell line; read-out: IC50 (μM) Test (e): Inhibition of erbB2 tyrosine kinase protein phosphorylation. How it is done: This immunofluorescence end point assay measures the ability of a test compound to inhibit the phosphorylation of erbB2 in a MCF7 (breast carcinoma) derived cell line which was generated by transfecting MCF7 cells with the full length erbB2 gene using standard methods to give a cell line that overexpresses full length wild type erbB2 protein (hereinafter ‘Clone 24’ cells).
Clone 24 cells were cultured in Growth Medium (phenol red free Dulbecco's modified Eagle's medium (DMEM) containing 10% foetal bovine serum, 2 mM glutamine and 1.2 mg/ml G418) in a 7.5% CO2 air incubator at 37° C. Cells were harvested from T75 stock flasks by washing once in PBS (phosphate buffered saline, pH7.4, Gibco No. 10010-015) and harvested using 2 mls of Trypsin (1.25 mg/ml)/ethylaminediaminetetraacetic acid (EDTA) (0.8 mg/ml) solution. The cells were resuspended in Growth Medium. Cell density was measured using a haemocytometer and viability was calculated using Trypan Blue solution before being further diluted in Growth Medium and seeded at a density of 1×10^4 cells per well (in 100 ul) into clear bottomed 96 well plates (Packard, No. 6005182).
3 days later, Growth Medium was removed from the wells and replaced with 100 ul Assay Medium (phenol red free DMEM, 2 mM glutamine, 1.2 mg/ml G418) either with or without erbB inhibitor compound. Plates were returned to the incubator for 4 hours and then 20 μl of 20% formaldehyde solution in PBS was added to each well and the plate was left at room temperature for 30 minutes. This fixative solution was removed with a multichannel pipette, 100 μl of PBS was added to each well and then removed with a multichannel pipette and then 50 μl PBS was added to each well. Plates were then sealed and stored for up to 2 weeks at 4° C.
Immunostaining was performed at room temperature. Cells were washed once with 200 μl PBS/Tween 20 (made by adding 1 sachet of PBS/Tween dry powder (Sigma, No. P3563) to 1 L of double distilled H2O) using a plate washer, then 100 μl of 0.5% Triton X-100/PBS was added to each well to permeabalise the cells. After 10 minutes, the plates were washed with 200 μl PBS/Tween 20 and then 100 μl Blocking Solution (5% Marvel dried simmed milk (Nestle) in PBS) was added per well and plates were incubated for 15 minutes. […] Plates were analysed within six hours of completing the immunostaining.
The Fluorescence signal is each well was measured using an Acumen Explorer Instrument (Acumen Bioscience Ltd.), a plate reader that can be used to rapidly quantitate features of images generated by laser-scanning. […] Fluorescence dose response data obtained with each compound was exported into a suitable software package (such as Origin) to perform curve fitting analysis. […]

For the next test, the target named is T3, erbB2 tyrosine kinase (Homo sapiens, UniProt P04626).
T3 construct: Recombinant intracellular fragments of EGFR, erbB2 and erbB4; made in house; host or cells: baculovirus/Sf21 insect cells (cleared lysate used)
T3 sequence (P04626 676-1255 limits assumed): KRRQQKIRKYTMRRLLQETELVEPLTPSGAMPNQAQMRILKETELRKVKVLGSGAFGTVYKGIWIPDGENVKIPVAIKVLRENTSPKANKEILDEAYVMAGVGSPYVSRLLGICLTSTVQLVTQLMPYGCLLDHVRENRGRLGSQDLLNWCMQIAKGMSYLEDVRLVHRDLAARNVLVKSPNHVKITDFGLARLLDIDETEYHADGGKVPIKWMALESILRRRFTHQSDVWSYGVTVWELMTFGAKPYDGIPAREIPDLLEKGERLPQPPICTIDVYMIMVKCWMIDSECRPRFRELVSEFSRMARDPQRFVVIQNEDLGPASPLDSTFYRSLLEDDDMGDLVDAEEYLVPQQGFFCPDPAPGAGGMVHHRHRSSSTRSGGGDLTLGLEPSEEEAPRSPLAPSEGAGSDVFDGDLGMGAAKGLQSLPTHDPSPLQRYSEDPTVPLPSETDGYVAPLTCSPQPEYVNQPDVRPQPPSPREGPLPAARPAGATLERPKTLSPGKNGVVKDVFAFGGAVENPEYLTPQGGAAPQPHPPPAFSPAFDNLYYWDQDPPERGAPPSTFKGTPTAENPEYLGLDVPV
Put plainly: Protein tyrosine kinase phosphorylation assay, Test (a), erbB2. Format: biochemical. The settings on record: recombinant intracellular fragment, ATP at Km concentration; read-out: IC50 (μM) Test (a): Inhibition of erbB2 tyrosine kinase protein phosphorylation. On the procedure:
as §1, §2, §3, §4, §5

T1 sequence (P00533 669-1210 limits assumed): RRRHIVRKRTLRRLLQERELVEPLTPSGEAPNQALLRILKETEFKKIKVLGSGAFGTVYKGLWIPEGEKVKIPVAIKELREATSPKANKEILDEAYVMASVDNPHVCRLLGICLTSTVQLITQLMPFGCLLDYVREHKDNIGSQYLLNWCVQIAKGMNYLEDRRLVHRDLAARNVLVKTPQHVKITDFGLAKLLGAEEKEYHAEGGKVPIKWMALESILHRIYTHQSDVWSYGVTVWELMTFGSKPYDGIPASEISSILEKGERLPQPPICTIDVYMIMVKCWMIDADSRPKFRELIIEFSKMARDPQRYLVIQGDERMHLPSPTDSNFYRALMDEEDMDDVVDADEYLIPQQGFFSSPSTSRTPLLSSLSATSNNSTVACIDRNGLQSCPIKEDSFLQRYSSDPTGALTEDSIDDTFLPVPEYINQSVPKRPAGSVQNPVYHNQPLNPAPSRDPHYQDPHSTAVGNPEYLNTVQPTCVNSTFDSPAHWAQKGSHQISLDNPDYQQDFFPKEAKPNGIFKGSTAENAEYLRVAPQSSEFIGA

Turning to `Cc1ccc(Oc2ccc(Nc3ncnc4cccc(OCC(=O)NCCO)c34)cc2C)cn1` [Example 52, N-(2-Hydroxyethyl)-2-{[4-({3-methyl-4-[(6-methylpyridin-3-yl)oxy]phenyl}amino)quinazolin-5-yl]oxy}acetamide], the IC50 turned out to be 1.47 µM on EGFR tyrosine kinase, 0.019 µM in test [1] and 0.002 µM on erbB2 tyrosine kinase.

As for `C[C@@H](Oc1cccc2ncnc(Nc3ccc(OCc4ccccn4)c(Cl)c3)c12)C(=O)N(C)C` [Example 21, (2R)-2-[(4-{[3-Chloro-4-(pyridin-2-ylmethoxy)phenyl]amino}quinazolin-5-yl)oxy]-N,N-dimethylpropanamide], the IC50 on EGFR tyrosine kinase was found to be 0.072 µM; in test [1] it was 0.001 µM; on erbB2 tyrosine kinase, 0.002 µM.

Consider `C[C@H](Oc1cccc2ncnc(Nc3ccc(OCc4ccccn4)c(Cl)c3)c12)C(=O)N1CCC[C@H]1CO` [Example 34, ((2S)-1-{(2S)-2-[(4-{[3-Chloro-4-(pyridin-2-ylmethoxy)phenyl]amino}quinazolin-5-yl)oxy]propanoyl}pyrrolidin-2-yl)methanol], for which the IC50 at EGFR tyrosine kinase came out at 0.135 µM; in test [1] it was 0.001 µM; at erbB2 tyrosine kinase, 0.002 µM.

For the compound `CC(C)(Oc1cccc2ncnc(Nc3ccc(OCc4ccccn4)c(Cl)c3)c12)C(N)=O` [Example 42, 2-[(4-{[3-Chloro-4-(pyridin-2-ylmethoxy)phenyl]amino}quinazolin-5-yl)oxy]-2-methylpropanamide], the 50% inhibitory concentration (IC50) at EGFR tyrosine kinase was 24.8 µM; in test [1], 0.002 µM; at erbB2 tyrosine kinase it was 0.012 µM.
